Data: ChEMBL document CHEMBL5032519, “Divergent synthesis and biological evaluation of 2-(trifluoromethyl)pyridines as virulence-attenuating inverse agonists targeting PqsR” (Eur J Med Chem, 2021)
Values after ≈ are worked out from the molar mass of the structure shown. Active and inactive are the calls of the source. No cut-off for these calls is given here.

Experiments:
Escherichia coli = experiment: Inverse agonist activity at PqsR in Escherichia coli […] by measuring remaining activity at 1 uM by cell-based reporter gene assay relative to control
[1] = Inverse agonist activity at PqsR in Escherichia coli […] by cell-based reporter gene assay
[2] = target: T1, Transcriptional regulator MvfR (Pseudomonas aeruginosa PA14, UniProt A0A072ZLE6); experiment: Inverse agonist activity at PqsR in Pseudomonas aeruginosa assessed as reduction in pyocyanin production
T1 sequence (A0A072ZLE6 whole entry): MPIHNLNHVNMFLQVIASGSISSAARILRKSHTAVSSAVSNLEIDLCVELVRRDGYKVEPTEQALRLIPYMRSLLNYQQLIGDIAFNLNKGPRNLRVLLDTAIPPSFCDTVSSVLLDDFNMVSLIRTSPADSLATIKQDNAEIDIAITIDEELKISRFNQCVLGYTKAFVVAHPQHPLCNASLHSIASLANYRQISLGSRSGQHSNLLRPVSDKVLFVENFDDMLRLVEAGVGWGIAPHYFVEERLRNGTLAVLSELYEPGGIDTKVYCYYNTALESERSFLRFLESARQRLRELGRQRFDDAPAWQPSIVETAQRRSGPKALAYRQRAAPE

[3] = Kinetic solubility of compound; assay type: physicochemical; conditions: read-out: Kinetic_solubility
[4] = Half life in human S9 fraction; assay type: ADME, subcellular
[5] = Cytotoxicity against human HepG2 cells; assay type: cell-based; conditions: read-out: LD50 (the source's name)
[6] = Cytotoxicity against HEK293 cells; assay type: cell-based; conditions: human, read-out: LD50 (the source's name)
Pseudomonas aeruginosa [7] = experiment: Antibiofilm activity against Pseudomonas aeruginosa assessed as reduction in CFU at 0.5 ug/ml; assay type: functional, organism-based; conditions: dose 0.5 µg/ml
[8] = target: T2, Transcriptional regulator MvfR (Pseudomonas aeruginosa PA14) (UniProt A0A072ZLE6); experiment: Inverse agonist activity at PqsR in Pseudomonas aeruginosa assessed as reduction in pyocyanin production at 0.2 uM relative to control; parameters: scale not given: the % may be the effect or the level left
T2 sequence (whole entry): T1 sequence (A0A072ZLE6 whole entry)

Pseudomonas aeruginosa [9] = experiment: Antibiofilm activity against Pseudomonas aeruginosa assessed as reduction in CFU at 50 uM in presence of TOB; assay type: functional, organism-based
Pseudomonas aeruginosa [10] = experiment: Antibiofilm activity against Pseudomonas aeruginosa assessed as reduction in CFU at 50 uM; assay type: functional, organism-based
[11] = target: T2, Transcriptional regulator MvfR (Pseudomonas aeruginosa PA14); experiment: Inverse agonist activity at PqsR in Pseudomonas aeruginosa assessed as reduction in pyocyanin production at 10 uM relative to control; parameters: scale not given: the % may be the effect or the level left; conditions: filed as inverse agonist

Structure (SMILES): FC(F)(F)c1cc(NCC#Cc2ccc(Cl)cn2)ccn1
- Activity (Escherichia coli): 53%

Structure (SMILES): Fc1cccc(C#CCNc2ccnc(C(F)(F)F)c2)c1
- IC50 [1]: 222 nM

Structure (SMILES): Fc1ccc(C#CCNc2ccnc(C(F)(F)F)c2)cc1
- IC50 [1]: 141 nM
- IC50 [2]: 3470 nM
- solubility kinetic [3]: > 200 µM
- half-life [4]: 61.2 min
- CC50 [5]: > 50000 nM
- CC50 [6]: > 50000 nM

Structure (SMILES): FC(F)(F)c1cc(NCCCc2ccc(Cl)cc2)ccn1
- IC50 [1]: 149 nM
- IC50 [2]: 1050 nM

Structure (SMILES): NC[C@H]1O[C@H](O[C@H]2[C@H](O)[C@@H](O[C@H]3O[C@H](CO)[C@@H](O)[C@H](N)[C@H]3O)[C@H](N)C[C@@H]2N)[C@H](N)C[C@@H]1O
- Activity (Pseudomonas aeruginosa [7]): inactive

Structure (SMILES): FC(F)(F)c1cc(NCCCc2ccccc2)ccn1
- Activity (Escherichia coli): 52%

Structure (SMILES): COc1ccc(C#CCNc2ccnc(C(F)(F)F)c2)cc1Cl
- Activity (Escherichia coli; filed as inverse agonist): 29%
- Activity [8]: 4%

Structure (SMILES): CCOc1ccc(C#CCNc2ccnc(C(F)(F)F)c2)cc1F
- IC50 [2]: 250 nM
- solubility kinetic [3]: 60.4 µM (≈ 20.4 µg/mL)
- half-life [4]: 13 min
- CC50 [6]: 56900 nM

Structure (SMILES): FC(F)(F)c1cc(NC/C=C/c2ccc(Cl)nc2)ccn1
- Activity (Escherichia coli): 81%

Structure (SMILES): COc1cccc(C#CCNc2ccnc(C(F)(F)F)c2)c1
- Activity (Escherichia coli): 58%

Structure (SMILES): Oc1ccc(C#CCNc2ccnc(C(F)(F)F)c2)cc1
- Activity (Escherichia coli): 82%

Structure (SMILES): COc1cccc(CCCNc2ccnc(C(F)(F)F)c2)c1
- Activity (Escherichia coli): 59%

Structure (SMILES): FC(F)(F)c1cc(SCC#Cc2ccc(Cl)cc2)ccn1
- solubility kinetic [3]: 42.4 µM (≈ 13.9 µg/mL)
- half-life [4]: 43.9 min
- CC50 [5]: > 100000 nM
- CC50 [6]: > 100000 nM

Structure (SMILES): FC(F)(F)c1cc(NCC#Cc2ccc(Cl)cc2)ccn1
- IC50 [1]: 281 nM
- IC50 [2]: 7970 nM

Structure (SMILES): CC(C)Oc1ccc(C#CCNc2ccnc(C(F)(F)F)c2)cc1F
- IC50 [1]: 80 nM
- IC50 [2]: 440 nM
- solubility kinetic [3]: 58.8 µM (≈ 20.7 µg/mL)
- half-life [4]: 25.3 min
- CC50 [5]: 69800 nM
- CC50 [6]: 61900 nM
- Activity (Pseudomonas aeruginosa [9]): Active
- Activity (Pseudomonas aeruginosa [10]): Active

Structure (SMILES): FC(F)(F)c1cc(NC/C=C/c2ccc(Oc3ccccc3)cc2)ccn1
- IC50 [1]: 464 nM
- IC50 [2]: 3830 nM

Structure (SMILES): COc1ccc(C#CCNc2ccnc(C(F)(F)F)c2)cc1
- Activity (Escherichia coli; filed as inverse agonist): 8%

Structure (SMILES): Fc1ccc(CCCNc2ccnc(C(F)(F)F)c2)cc1
- IC50 [1]: 251 nM
- IC50 [2]: 3650 nM
- solubility kinetic [3]: 93.9 µM (≈ 28 µg/mL)
- half-life [4]: 32.7 min
- CC50 [6]: 25000 nM

Structure (SMILES): Nc1cc(NCCCc2ccc(F)cc2)cc(C(F)(F)F)n1
- IC50 [1]: 140 nM
- IC50 [2]: 6900 nM
- half-life [4]: 56 min

Structure (SMILES): CCOc1ccc(C#CCNc2ccnc(C(F)(F)F)c2)cc1Cl
- IC50 [1]: 150 nM
- IC50 [2]: 390 nM

Structure (SMILES): FC(F)(F)c1cc(NC/C=C/c2ccc(Cl)cc2)ccn1
- IC50 [1]: 479 nM
- Activity [11]: 93%

Structure (SMILES): FC(F)(F)c1cc(NCC#Cc2ccc(Br)cc2)ccn1
- Activity (Escherichia coli): 115%

Structure (SMILES): COc1ccc(C#CCNc2ccnc(C(F)(F)F)c2)cc1F
- IC50 [2]: 3170 nM

Structure (SMILES): FC(F)(F)c1cc(NCCCc2ccc(Oc3ccccc3)cc2)ccn1
- Activity (Escherichia coli; filed as inverse agonist): -41%
- Activity [8]: 0%

Structure (SMILES): FC(F)(F)c1cc(NCC#Cc2ccc(Cl)c(Cl)c2)ccn1
- Activity (Escherichia coli; filed as inverse agonist): 35%

Structure (SMILES): FC(F)(F)c1cc(NC/C=C\c2ccc(Cl)nc2)ccn1
- Activity (Escherichia coli; filed as inverse agonist): 45%

Structure (SMILES): FC(F)(F)c1cc(NCC#Cc2ccc(Cl)nc2)ccn1
- Activity (Escherichia coli; filed as inverse agonist): 33%

Structure (SMILES): Fc1ccc(C#CCNc2ccnc(C(F)(F)F)c2)c(F)c1
- Activity (Escherichia coli): 70%

Structure (SMILES): CC(C)Oc1ccc(C#CCNc2ccnc(C(F)(F)F)c2)cc1
- IC50 [2]: 650 nM

Structure (SMILES): CCOc1ccc(C#CCNc2ccnc(C(F)(F)F)c2)cc1
- IC50 [1]: 170 nM
- IC50 [2]: 390 nM

Structure (SMILES): COc1ccc(C#CCNc2ccnc(C(F)(F)F)c2)cc1C
- IC50 [1]: 289 nM
- Activity [8]: 5%

Structure (SMILES): FC(F)(F)c1cc(NCc2cn(-c3ccc(Oc4ccccc4)cc3)nn2)ccn1
- half-life [4]: 169 min

Structure (SMILES): CC(C)Oc1ccc(C#CCNc2ccnc(C(F)(F)F)c2)cc1Cl
- IC50 [1]: 129 nM
- IC50 [2]: 560 nM

Structure (SMILES): FC(F)(F)c1cc(NCC#Cc2ccc(Oc3ccccc3)cc2)ccn1
- IC50 [1]: 20 nM
- IC50 [2]: 490 nM
- solubility kinetic [3]: 13.2 µM (≈ 4.86 µg/mL)
- half-life [4]: 53 min
- CC50 [5]: > 25000 nM
- CC50 [6]: 10000 nM
